The source of these data is article PMC9646970 (Poultry Science, 2022).

Molecules are shown by their SMILES. Where two headings read alike, the source gives them in different places.

What is called AUC is the area under the concentration-time curve, a measure of exposure. In general, Cmax refers to the peak of the concentration-time curve. By Tmax is commonly meant the time from dosing to the highest level. In general, bioavailability refers to the share of a dose that reaches the circulation, judged against a reference dose that is usually intravenous. Low values mean little systemic uptake, high ones much systemic uptake.

Data set [1] is classed as in vivo, broiler chickens.
The nature of data set [2]: Population pharmacokinetic analysis. The format is in vivo, broiler chickens. Particulars: for AUC: geometric mean.
Data set [3] is classed as in vivo, broiler chickens. Particulars: single ENR administration (i.v. 10 mg/kg or p.o. 20 mg/kg) with or without CsA or AC.
The conditions of data set [4]: cited from earlier work.
Where [5] appears, read: population fixed effect, p.o. administration.
Setting [6] is: oral administration, same dose (20 mg/kg), ref Xiao et al., 2018.

Turning to `CCN1CCN(c2cc3c(cc2F)c(=O)c(C(=O)O)cn3C2CC2)CC1` [Enrofloxacin, enrofloxacin], the AUC in data set [1] (Ross hybrid (Cornish × Plymouth Rock), plasma, po, 20 mg/kg, AUC, enrofloxacin in plasma, enrofloxacin p.o. 20 mg/kg + cyclosporine A p.o. 50 mg/kg, geometric mean (min–max)) is 40400 ng·h/mL; in data set [2] (Ross hybrid (Cornish × Plymouth Rock), plasma, iv, 10 mg/kg, AUCi.v. – activated charcoal, enrofloxacin i.v. 10 mg/kg + activated charcoal p.o. 1 g/kg) it was 13300 ng·h/mL; in data set [2] (Ross hybrid (Cornish × Plymouth Rock), plasma, iv, 10 mg/kg, AUCi.v. – cyclosporine A, enrofloxacin i.v. 10 mg/kg + cyclosporine A p.o. 50 mg/kg), 16200 ng·h/mL; in data set [2] (Ross hybrid (Cornish × Plymouth Rock), plasma, po, 20 mg/kg, AUCp.o. – control, enrofloxacin p.o. 20 mg/kg alone), 31200 ng·h/mL; in data set [2] (Ross hybrid (Cornish × Plymouth Rock), plasma, po, 20 mg/kg, AUCp.o. – cyclosporine A, enrofloxacin p.o. 20 mg/kg + cyclosporine A p.o. 50 mg/kg), 37400 ng·h/mL; in data set [4] (i.v. administration at 10 mg/kg, ref Atef et al., 2020), 15200 ± 1080 ng·h/mL. Also, the Cmax in data set [1] (Ross hybrid (Cornish × Plymouth Rock), plasma, po, 20 mg/kg, Cmax, enrofloxacin in plasma, enrofloxacin p.o. 20 mg/kg + cyclosporine A p.o. 50 mg/kg, geometric mean (min–max)) was 5620 ng/mL; in data set [4] (setting [6]) it was 2860 ± 520 ng/mL. In data set [1] (Ross hybrid (Cornish × Plymouth Rock), plasma, po, 20 mg/kg, Tmax, enrofloxacin in plasma, enrofloxacin p.o. 20 mg/kg + cyclosporine A p.o. 50 mg/kg, geometric mean (min–max)), the Tmax was found to be 1.35 h. Further, the “increase of AUC with CsA co-administration” value in data set [1] (enrofloxacin p.o. 20 mg/kg + CsA p.o. versus enrofloxacin p.o. alone) is given as “approx. 20%”. This molecule gave a bioavailability in data set [2] (Ross hybrid (Cornish × Plymouth Rock), plasma, po, 20 mg/kg) of 100%. The “lag time (time to pass the crop and the stomach to reach the absorption site)” value in data set [2] (p.o. administration, on average) is 3.24 min. The “βCl BW (covariate effect of body weight on clearance)” value in data set [2] (population fixed effect, log-normalized BW) came out at 0.77. Besides, the “tvTlag (typical value of lag time)” value in data set [2] (setting [5]) amounted to 0.054 h. Besides, the “tvka (typical value of absorption rate constant)” value in data set [2] (setting [5]) was determined as 1.26 h⁻¹. The adverse effects result in data set [3] is on record as “No adverse effects were observed”. In addition, in data set [4] (co-administered with the P-gp inhibitor verapamil, ref Guo et al., 2013), the “oral bioavailability change with verapamil co-administration” value was “nearly doubled”. Moreover, the AUC0-24h in data set [4] (setting [6]) was 30.07 ± 4.64 µg/h/mL.
